Data reported in US20260191823A1, “PROPHYLACTIC OR THERAPEUTIC AGENT FOR ACUTE KIDNEY INJURY INDUCED BY ANTICANCER AGENT” (KYOWA HAKKO BIO CO., LTD., priority 2022, published 2026).

Columns and labels:
[1] = system: Human proximal renal tubular cells (HK-2); experiment: Suppression effect on cisplatin-induced cytotoxicity in renal tubular cells (cell counting kit-8); type: cell-based; details: for suppression of cell death over the tested concentrations: 0.01-100 μM test compound, cisplatin 20 μM for 24 h; for suppression of cell death over the tested concentrations / concentration showing a significant cell death-suppressing effect: FIG. 1; for concentration showing a significant cell death-suppressing effect: 0.5 h pre-treatment with test compound, then cisplatin 20 μM for 24 h
Experimental: Human proximal renal tubular cells (HK-2) were seeded into a 96-well plate containing medium at a density of 5×10^3 cells/well. After confirming that the seeded cells had adhered to the plate, each test compound (GSSSG or Na2S4) was added so that the final concentration was 0 μM, 0.01 μM, 0.02 μM, 0.10 μM, 0.39 μM, 1.56 μM, 6.25 μM, 25 μM, or 100 μM, followed by standing at 37° C. for 0.5 hours. Each test compound was dissolved in PBS and then added.
The supernatant in each well was removed, and the cells were washed with PBS. […] Thereafter, cell viability was evaluated using cell counting kit-8 (Dojindo).
The composition of the medium used in Example 1 was as follows: • D-MEM/Ham's F-12 (FUJIFILM Wako Pure Chemical Corporation)+Penicillin-Streptomycin-Amphotericin B (FUJIFILM Wako Pure Chemical Corporation)+GlutaMAX (Thermo Fisher Scientific)+10% FBS.

[2] = system: cisplatin-induced acute kidney injury model animal; experiment: Cisplatin-induced acute kidney injury model animal; type: in vivo; details: administration group
[3] = system: cisplatin-induced renal injury; details: 5.6 mg/kg intraperitoneal; cited from earlier work
[4] = system: renal dysfunction caused by administration of cisplatin; details: 300 mg/kg intraperitoneally; cited from earlier work

| Structure (SMILES) | suppression of cell death over the tested concentrations ([1]; HK-2 cells) | concentration showing a significant cell death-suppressing effect ([1]; HK-2 cells) [µM] | cell death-suppressing effect relative to Na2S4 ([1]; HK-2 cells, cisplatin 20 μM, compares 0.1 μM with 100 μM) | number of viable renal tubular cells ([1]; test compound 0.1 μM, cisplatin added, fluorescence images, FIG. 2) | elevation of blood urea nitrogen (BUN) level [2] | elevation of serum creatinine (CRE) level [2] | effect on cisplatin-induced renal injury [3] | cisplatin-induced body weight suppression [4] | cisplatin-induced elevated blood urea nitrogen [4] |
| --- | --- | --- | --- | --- | --- | --- | --- | --- | --- |
| N[C@@H](CCC(=O)N[C@@H](CSSSC[C@H](NC(=O)CC[C@H](N)C(=O)O)C(=O)NCC(=O)O)C(=O)NCC(=O)O)C(=O)O [GSSSG, glutathione trisulfide] | tendency to suppress cell death in a concentration-dependent manner | 0.1 | about 1000 times | notably higher | could be suppressed | could be suppressed | – | – | – |
| [Na+].[Na+].[S-]SS[S-] [Na2S4, reference compound] | tendency to suppress cell death in a concentration-dependent manner | 100 | – | – | – | – | effective | – | – |
| CC(C)OC(=O)CNC(=O)C(CS)NC(=O)CCC(N)C(=O)O.O=S(=O)(O)O (centres unmarked) [glutathione monoisopropyl ester sulfate] | – | – | – | – | – | – | – | alleviates | alleviates |
